Data as given in ChEMBL document CHEMBL1201862, “PubChem BioAssay data set” (2004).
Each block holds one compound with its values, some of them ahead of it. The source made the active and inactive calls.

Columns and labels:
[1] = target: Glyceraldehyde-3-phosphate dehydrogenase (Homo sapiens, UniProt P04406)
[2] = target: T1, Caspase-6 (Homo sapiens, UniProt P55212); assay: human caspase-6 inhibitors, dose response, biochemical, VEID-R110 fluorescence, cherry-pick (AID 720632)
T1 sequence (P55212 whole entry): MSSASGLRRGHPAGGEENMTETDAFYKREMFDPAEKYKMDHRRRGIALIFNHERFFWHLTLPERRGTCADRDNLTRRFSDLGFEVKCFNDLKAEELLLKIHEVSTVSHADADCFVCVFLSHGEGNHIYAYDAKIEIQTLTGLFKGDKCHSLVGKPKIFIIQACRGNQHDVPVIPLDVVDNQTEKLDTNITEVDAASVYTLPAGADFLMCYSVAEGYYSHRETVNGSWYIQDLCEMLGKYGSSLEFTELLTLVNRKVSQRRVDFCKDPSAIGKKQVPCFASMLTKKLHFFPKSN

[3] = control 3'UTR Renilla luciferase suppression, dose response, counter-screen for Shn3 inhibitor project, cell-based, Clone20-Shn3RL, cherry-picked (AID 624133); format: functional
[4] = HepG2 cell cytotoxicity, dose response, cytotoxicity control for Shn3 inhibitor project, CellTiter-Glo, cherry-picked (AID 624134); format: functional, cell-based
[5] = Shn3 3'UTR reporter inhibitors, dose response, cell-based, Clone20 osteoblasts, firefly luciferase, cherry-picked (AID 624132); format: functional;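 note: firefly luciferase luminescence from reporter carrying the Shn3 3'UTR in osteoblasts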
[6] = cytotoxicity toward NIH3T3 fibroblasts, dose response, counter-screen, cell-based, ATP luminescence, mouse fibroblasts (AID 2010); format: functional;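 note: cells exposed to compound for about 90 hours before reading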
[7] = inhibitors of intracellular T. cruzi replication, confirmation, NIH3T3 host cells, beta-gal luminescence (AID 2044); format: functional, cell-based;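 note: intracellular parasites grown in NIH/3T3 mouse fibroblasts as host cells; luminescent beta-galactosidase reporter signal from transgenic T. cruzi replicating inside host cells; inhibitors lower the luminescence signal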
[8] = HEK293T cytotoxicity, dose response, cytotoxicity control for miR-122 modulator project, cell-based, activator set, cherry-pick (AID 720690); format: functional;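 note: HEK293T human cells scored for general mammalian cytotoxicity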
[9] = miR-122 activators in hepatoma reporter cells, dose response, cell-based, Huh7 psiCHECK-miR122, Renilla luciferase, cherry-picked (AID 651956); format: functional;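 note: huh7 hepatoma cells stably carrying a psiCHECK-2 miR-122 sensor plasmid; renilla luciferase signal reporting endogenous miR-122 activity after 48 h compound exposure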
[10] = HEK293T cytotoxicity, dose response, cytotoxicity control for miR-122 modulator project, cell-based, inhibitor set, cherry-pick, set 2 (AID 720697); format: functional
[11] = HepG2 cell cytotoxicity, dose response, cytotoxicity control, cherry-picked samples (AID 1159577); format: functional, cell-based
[12] = P. falciparum Dd2 growth inhibitors, dose response, SYBR Green, cherry-picked samples (AID 1159567); format: functional, cell-based
[13] = MC4R antagonists, dose response, counter-screen for LGR2 antagonist project, cell-based, plate reader, cherry pick (AID 743444); format: functional;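 note: transfected HEK 293 cells stimulated with alpha-MSH peptide; potency of inhibitors of the alpha-MSH evoked signal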
[14] = HepG2 cell cytotoxicity, dose response, cytotoxicity control, plate reader, cherry-pick, antagonist series (AID 743416); format: functional, cell-based
[15] = LGR2 antagonists, dose response, cell-based, HEK293, CRE-luciferase reporter, cherry pick, set 2 (AID 743343); format: functional;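 note: transfected cells were stimulated with diluted bursicon conditioned medium after compound addition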
[16] = target: T2, Leucine aminopeptidase (Plasmodium falciparum 3D7, UniProt Q8IL11); assay: P. falciparum M17LAP inhibitors, primary screen, biochemical, fluorogenic H-Leu-NHMec substrate, 1536-well (AID 1619); format: functional
T2 sequence (Q8IL11 whole entry): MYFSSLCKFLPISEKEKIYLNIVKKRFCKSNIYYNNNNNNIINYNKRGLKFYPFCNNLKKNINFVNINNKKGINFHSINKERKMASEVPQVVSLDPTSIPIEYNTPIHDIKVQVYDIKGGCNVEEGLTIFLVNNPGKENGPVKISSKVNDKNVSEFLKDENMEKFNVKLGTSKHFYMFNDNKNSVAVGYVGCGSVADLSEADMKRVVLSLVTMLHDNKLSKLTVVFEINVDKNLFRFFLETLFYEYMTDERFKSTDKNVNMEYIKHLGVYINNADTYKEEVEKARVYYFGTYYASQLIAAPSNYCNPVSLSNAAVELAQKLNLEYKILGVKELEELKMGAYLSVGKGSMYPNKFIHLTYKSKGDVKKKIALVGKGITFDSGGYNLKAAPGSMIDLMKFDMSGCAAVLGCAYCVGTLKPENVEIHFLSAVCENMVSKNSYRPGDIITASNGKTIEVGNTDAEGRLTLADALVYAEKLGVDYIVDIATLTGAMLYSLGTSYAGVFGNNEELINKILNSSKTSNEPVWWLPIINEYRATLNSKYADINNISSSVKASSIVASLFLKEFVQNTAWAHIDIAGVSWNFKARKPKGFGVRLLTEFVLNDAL

Chain of Glyceraldehyde-3-phosphate dehydrogenase (P04406 whole entry): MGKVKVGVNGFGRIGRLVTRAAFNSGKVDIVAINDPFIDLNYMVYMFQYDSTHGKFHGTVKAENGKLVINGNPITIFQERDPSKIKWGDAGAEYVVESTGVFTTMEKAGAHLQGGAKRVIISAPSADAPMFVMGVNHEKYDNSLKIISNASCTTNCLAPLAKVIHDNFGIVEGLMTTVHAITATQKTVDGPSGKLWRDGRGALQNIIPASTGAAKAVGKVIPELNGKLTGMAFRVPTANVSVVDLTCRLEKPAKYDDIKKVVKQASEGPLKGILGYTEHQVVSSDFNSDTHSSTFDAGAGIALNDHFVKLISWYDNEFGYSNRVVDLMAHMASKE

IC50 [1]: > 50 µM (inconclusive)
SMILES: C[C@@H]1CN(C2=C(Cl)C(=O)N(c3ccnc(Cl)c3)C2=O)CCN1

AC50 [2]: 14.5 µM (active)
SMILES: O=C(O)c1cc(S(=O)(=O)Nc2ccc3c[nH]nc3c2)ccc1Br

SMILES: CC(C)CC(N)c1csc(NC(=O)c2cc(C(C)(C)C)nn2Cc2ccccc2)n1 (stereo unspecified)
AC50 [3]: 20.8 µM (active) | AC50 [4]: 8.75 µM (active) | AC50 [5]: 4.85 µM (active)

SMILES: CC1=Nc2nnnn2C(c2cccnc2)/C1=C(\O)OC1CCCCC1 (stereo unspecified)
EC50 [6]: > 60 µM (not active) | AC50 [3]: 3.92 µM (active) | EC50 [7]: 1.79 µM (active) | AC50 [4]: > 70 µM (inactive) | AC50 [5]: 3.23 µM (active)

SMILES: C[C@@H]1CN([C@H](C)CO)S(=O)(=O)c2ccc(C#Cc3ccccc3F)cc2O[C@@H]1CN(C)C(=O)Cc1ccncc1
AC50 [8]: 32.4 µM (active) | AC50 [9]: 5.11 µM (active)

SMILES: C[C@@H]1CCCCO[C@@H](CN(C)Cc2ccc3c(c2)OCO3)[C@H](C)CN([C@H](C)CO)C(=O)c2cc(NC(=O)Nc3ccc(C(F)(F)F)cc3)ccc2O1
AC50 [8]: 9.09 µM (active) | AC50 [9]: 5.55 µM (active) | AC50 [10]: 8.08 µM (active)

SMILES: COc1ccc(NC(=O)N2CCCCN3[C@@H](CO)[C@H](c4ccc(C#CCC(C)C)cc4)[C@@H]3C2)cc1
AC50 [11]: 8.52 µM (active) | AC50 [8]: 11.6 µM (active) | AC50 [9]: 3.18 µM (active) | AC50 [12]: 0.491 µM (active) | AC50 [10]: 11.7 µM (active)

SMILES: CC(=O)N1CCCC(c2cc(C(=O)Nc3ccccc3)no2)C1 (stereo unspecified)
AC50 [13]: 1.98 µM (active) | AC50 [14]: > 52 µM (inactive) | AC50 [15]: 2.13 µM (active)

SMILES: COc1ccc(NC(=O)N(C)C[C@H]2Oc3cc(C#CCC(C)C)ccc3S(=O)(=O)N([C@@H](C)CO)C[C@H]2C)cc1
AC50 [8]: 27 µM (active) | AC50 [10]: 6.46 µM (active)

SMILES: CN1C(=O)c2cc(NC(=O)Nc3ccccc3F)ccc2OC[C@@H]2O[C@@H](CC(=O)NCc3ccc(-c4ccccc4)cc3)CC[C@@H]21
AC50 [8]: 47.9 µM (active)

IC50 [16]: 24.8 µM (active)
SMILES: CSc1nnc(-c2cc(Br)ccc2/N=C/c2c(C)nn(-c3ccccc3)c2O)c(O)n1

SMILES: COc1ccc(C#Cc2ccc([C@H]3[C@H](CO)N4CCCCN(Cc5ccccc5F)C[C@@H]34)cc2)cc1
AC50 [11]: 10.9 µM (active) | AC50 [12]: 0.781 µM (active)

SMILES: C[C@H]1CN([C@@H](C)CO)S(=O)(=O)c2ccc(C3=CCCCC3)cc2O[C@@H]1CN(C)C(=O)Cc1ccncc1
AC50 [11]: > 39 µM (inactive) | AC50 [12]: 3.13 µM (active)
